Experimental data taken from PMC7004565, “Nucleotide inhibition of the pancreatic ATP-sensitive K^+ channel explored with patch-clamp fluorometry” (eLife, 2020).
Several values for one entry are separate records, joined by “and”; a condition that tells them apart may be missing. Equal entries are not always repeated.

Tests used:
Kir6.2-GFP + SUR1 [1] = target: T1, Kir6.2-GFP + SUR1 (Homo sapiens, UniProt Q14654); assay: Current inhibition in excised inside-out patches (patch-clamp fluorometry); format: biochemical; design: full length, fully ANAP-labelled Kir6.2 protein was produced and successfully trafficked to the membrane in the presence of SUR1; expressed in transfected cells; host or cells: HEK-293T; conditions: excised inside-out patches, Mg2+-free, Hill fit
T1 sequence (Q09428 whole entry partner, one chain of several): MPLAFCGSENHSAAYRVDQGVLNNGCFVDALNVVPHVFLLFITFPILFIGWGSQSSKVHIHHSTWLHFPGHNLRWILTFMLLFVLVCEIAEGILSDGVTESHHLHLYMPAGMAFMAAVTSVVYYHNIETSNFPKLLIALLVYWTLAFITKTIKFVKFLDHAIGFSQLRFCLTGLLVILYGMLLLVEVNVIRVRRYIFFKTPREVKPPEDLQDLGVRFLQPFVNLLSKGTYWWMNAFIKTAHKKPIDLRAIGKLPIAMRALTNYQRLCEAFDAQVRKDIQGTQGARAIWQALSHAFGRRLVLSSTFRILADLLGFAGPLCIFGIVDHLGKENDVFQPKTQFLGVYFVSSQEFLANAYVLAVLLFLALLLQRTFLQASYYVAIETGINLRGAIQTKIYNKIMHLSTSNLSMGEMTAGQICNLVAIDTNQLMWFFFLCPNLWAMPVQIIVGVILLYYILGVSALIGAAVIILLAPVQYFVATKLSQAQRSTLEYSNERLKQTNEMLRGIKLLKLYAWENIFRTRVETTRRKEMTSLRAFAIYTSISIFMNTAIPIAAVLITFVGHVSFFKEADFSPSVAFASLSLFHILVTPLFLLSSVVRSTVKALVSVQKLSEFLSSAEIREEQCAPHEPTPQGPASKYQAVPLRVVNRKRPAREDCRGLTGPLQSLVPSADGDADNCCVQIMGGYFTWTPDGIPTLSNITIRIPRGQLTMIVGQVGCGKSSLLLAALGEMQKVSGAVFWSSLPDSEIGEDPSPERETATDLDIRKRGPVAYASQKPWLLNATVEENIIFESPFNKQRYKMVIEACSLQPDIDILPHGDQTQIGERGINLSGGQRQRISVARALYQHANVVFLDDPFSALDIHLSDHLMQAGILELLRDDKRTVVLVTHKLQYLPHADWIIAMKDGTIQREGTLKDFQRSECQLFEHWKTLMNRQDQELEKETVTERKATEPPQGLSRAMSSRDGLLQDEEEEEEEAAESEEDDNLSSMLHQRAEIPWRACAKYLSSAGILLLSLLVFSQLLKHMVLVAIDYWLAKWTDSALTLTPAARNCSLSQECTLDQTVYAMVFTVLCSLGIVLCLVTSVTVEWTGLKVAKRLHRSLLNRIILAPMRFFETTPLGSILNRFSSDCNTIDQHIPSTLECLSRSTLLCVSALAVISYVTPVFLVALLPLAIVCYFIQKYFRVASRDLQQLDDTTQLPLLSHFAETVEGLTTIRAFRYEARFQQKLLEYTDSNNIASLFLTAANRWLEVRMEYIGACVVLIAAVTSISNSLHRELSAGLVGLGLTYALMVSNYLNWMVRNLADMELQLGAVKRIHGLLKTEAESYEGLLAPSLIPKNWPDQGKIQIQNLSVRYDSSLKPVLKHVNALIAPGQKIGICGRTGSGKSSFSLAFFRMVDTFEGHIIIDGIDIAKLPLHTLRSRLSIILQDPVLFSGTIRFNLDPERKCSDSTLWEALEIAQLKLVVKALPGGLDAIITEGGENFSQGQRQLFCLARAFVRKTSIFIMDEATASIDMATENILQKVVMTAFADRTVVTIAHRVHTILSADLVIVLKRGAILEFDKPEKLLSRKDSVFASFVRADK
Protocol: (§1) Currents were measured from patches from cells expressing KATP that were excised in the absence of Mg^2+. Under such conditions, nucleotides can bind to both sites on SUR1, but no activation occurs, allowing inhibitory currents to be measured in isolation ([Gribble et al., 1998]; [Ueda et al., 1999]; [Puljung et al., 2019]).
Currents were measured as described above.

Kir6.2-GFP (no SUR1) = target: T2, Kir6.2-GFP (no SUR1) (Homo sapiens, UniProt Q14654); assay: FRET (ANAP quenching) nucleotide binding in unroofed membranes
T2 construct: ANAP labelling is specific and only full-length Kir6.2 is expressed at the cell membrane; expressed in transfected cells; host or cells: HEK-293T
T2 sequence (Q14654 1-390): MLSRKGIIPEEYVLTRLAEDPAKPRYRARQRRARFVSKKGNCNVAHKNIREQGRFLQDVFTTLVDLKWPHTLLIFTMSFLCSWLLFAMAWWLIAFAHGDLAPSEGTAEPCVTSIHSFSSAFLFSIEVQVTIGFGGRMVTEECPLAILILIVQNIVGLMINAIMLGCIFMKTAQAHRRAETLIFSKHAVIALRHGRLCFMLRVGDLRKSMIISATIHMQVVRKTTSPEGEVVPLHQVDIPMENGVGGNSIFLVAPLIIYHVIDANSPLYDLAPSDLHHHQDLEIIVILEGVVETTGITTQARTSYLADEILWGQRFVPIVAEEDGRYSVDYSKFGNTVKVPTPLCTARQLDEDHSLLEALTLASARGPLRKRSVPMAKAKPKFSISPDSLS
From the text: To measure nucleotide binding, cells transfected with Kir6.2*-GFP + SUR1 were briefly sonicated, leaving behind unroofed plasma membrane fragments ([Heuser, 2000]; [Zagotta et al., 2016]; [Puljung et al., 2019]) containing ANAP-labelled KATP channels with the intracellular nucleotide-binding sites exposed to the bath solution. The sample was excited with a 385 nm LED and emitted fluorescence from the membrane fragments was passed through a spectrometer, allowing us to separate ANAP, GFP, and TNP-ATP fluorescence by peak wavelength (Figure 1E,F). As expected from FRET, increasing the concentration of TNP-ATP caused a decrement in the ANAP peak at 472 nm and a concomitant increase in the TNP-ATP peak at 561 nm (Figure 1F). We used the quenching of the ANAP peak as a direct measure of TNP-ATP binding as this signal was specific to KATP. In contrast, the peak TNP-ATP fluorescence may include contributions from both specific and non-specific nucleotide binding, as well as direct excitation of TNP-ATP in solution by the 385 nm excitation light. Due to the sharp cut-off of the GFP emission spectrum at shorter wavelengths, our measurements of peak ANAP fluorescence were unaffected by the presence of the GFP tag on Kir6.2.
SUR1 plays a complex role in the regulation of Kir6.2. It increases the Popen of the channel and allows for the activation of the channel by Mg-nucleotides ([Nichols et al., 1996]; [Tucker et al., 1997]; [Babenko and Bryan, 2003]; [Chan, 2003]; [Fang et al., 2006]). However, it also increases the sensitivity of Kir6.2 to nucleotide inhibition ([Babenko and Bryan, 2003]; [Chan, 2003]; [Fang et al., 2006]). To understand the effect of SUR1 on nucleotide inhibition of KATP, we expressed Kir6.2*-GFP in the absence of SUR1 in unroofed membranes and measured TNP-ATP binding (Figure 4—figure supplement 1A). […] Unfortunately, we were unable to achieve high enough expression of Kir6.2*-GFP alone to carry out PCF experiments in the absence of SUR1. […]
Epifluorescence imaging and spectroscopy were performed using a Nikon Eclipse TE2000-U microscope with a 60x water immersion objective (Plan Apo VC, NA = 1.2, Nikon; Kingston upon Thames, UK) or a 100x oil immersion objective (Nikon, Apo TIRF, NA = 1.49). […] Fluorescence spectra were collected by exciting ANAP as above but using a 400 nm long-pass emission filter (ThorLabs), then passing emitted light through an IsoPlane 160 Spectrometer (Princeton Instruments; Trenton, NJ) with a 300 grooves mm^-1 grating. […]
Unroofed membranes were prepared as described previously ([Heuser, 2000]; [Zagotta et al., 2016]; [Puljung et al., 2019]). […] Unroofed membrane fragments were nearly invisible in bright-field images and identified by their GFP and ANAP fluorescence. […]

Kir6.2-GFP + SUR1 [2] = target: T1, Kir6.2-GFP + SUR1; assay: Current inhibition in excised inside-out patches; format: biochemical; design: ANAP labelling is specific and only full-length Kir6.2 is expressed at the cell membrane; expressed in transfected cells; host or cells: HEK-293T; conditions: Mg2+-free, Hill fit
Protocol: as §1

Nc1ncnc2c1ncn2[C@@H]1O[C@H](COP(=O)(O)OP(=O)(O)OP(=O)(O)O)[C@H]2OC3(O[C@H]21)C([N+](=O)[O-])=CC(=[N+]([O-])[O-])C=C3[N+](=O)[O-] (some centres unmarked) [TNP-ATP, trinitrophenyl-ATP]
IC50 (Kir6.2-GFP + SUR1 [1]; IC50 current inhibition): 6.2 µM and 6.23 µM and 6.17 µM
h (Hill coefficient) current inhibition (Kir6.2-GFP + SUR1 [1]): 0.92
increase in apparent EC50 compared to the same construct in the presence of SUR1 (Kir6.2-GFP (no SUR1)): approximately 1.5 fold
h (Hill coefficient) fluorescence quenching (Kir6.2-GFP (no SUR1); no SUR1, Hill fit): 0.83
Emax (Kir6.2-GFP (no SUR1); no SUR1, Hill fit, fraction, read-out: Emax fluorescence quenching): 92%
EC50 (Kir6.2-GFP (no SUR1); no SUR1, Hill fit, n = 14, read-out: EC50 fluorescence quenching): 37.6 µM and 38 µM
IC50 (Kir6.2-GFP + SUR1 [2]; IC50 current inhibition): 1.2 µM and 1.17 µM
h (Hill coefficient) current inhibition (Kir6.2-GFP + SUR1 [2]): 1.14
